Experimental data taken from US20240101576A1, “HETEROCYCLIC INHIBITORS OF EGFR AND/OR HER2, FOR USE IN THE TREATMENT OF CANCER” (Scorpion Therapeutics, Inc., priority 2020, published 2024).

Tests used:
Assay type in all cases: cell-based
[1] = target: T1, EGFR exon 20 FQEA Ins A763_V764 (Ba/F3 cells) (Homo sapiens, UniProt P00533, INS763FQEA); assay: Inhibitor activity on EGFR-dependent cell growth (CellTiter-Glo, 72 h), Ba/F3 EGFR exon 20 FQEA Ins; details: read-out: BaF3 FQEA IC50
T1 construct: expressed in transfected cells; host or cells: Ba/F3 (murine pro-B cells), retroviral transduction, puromycin selection, IL3-independent pool
T1 sequence (P00533 with tags, fused parts or gaps INS763FQEA): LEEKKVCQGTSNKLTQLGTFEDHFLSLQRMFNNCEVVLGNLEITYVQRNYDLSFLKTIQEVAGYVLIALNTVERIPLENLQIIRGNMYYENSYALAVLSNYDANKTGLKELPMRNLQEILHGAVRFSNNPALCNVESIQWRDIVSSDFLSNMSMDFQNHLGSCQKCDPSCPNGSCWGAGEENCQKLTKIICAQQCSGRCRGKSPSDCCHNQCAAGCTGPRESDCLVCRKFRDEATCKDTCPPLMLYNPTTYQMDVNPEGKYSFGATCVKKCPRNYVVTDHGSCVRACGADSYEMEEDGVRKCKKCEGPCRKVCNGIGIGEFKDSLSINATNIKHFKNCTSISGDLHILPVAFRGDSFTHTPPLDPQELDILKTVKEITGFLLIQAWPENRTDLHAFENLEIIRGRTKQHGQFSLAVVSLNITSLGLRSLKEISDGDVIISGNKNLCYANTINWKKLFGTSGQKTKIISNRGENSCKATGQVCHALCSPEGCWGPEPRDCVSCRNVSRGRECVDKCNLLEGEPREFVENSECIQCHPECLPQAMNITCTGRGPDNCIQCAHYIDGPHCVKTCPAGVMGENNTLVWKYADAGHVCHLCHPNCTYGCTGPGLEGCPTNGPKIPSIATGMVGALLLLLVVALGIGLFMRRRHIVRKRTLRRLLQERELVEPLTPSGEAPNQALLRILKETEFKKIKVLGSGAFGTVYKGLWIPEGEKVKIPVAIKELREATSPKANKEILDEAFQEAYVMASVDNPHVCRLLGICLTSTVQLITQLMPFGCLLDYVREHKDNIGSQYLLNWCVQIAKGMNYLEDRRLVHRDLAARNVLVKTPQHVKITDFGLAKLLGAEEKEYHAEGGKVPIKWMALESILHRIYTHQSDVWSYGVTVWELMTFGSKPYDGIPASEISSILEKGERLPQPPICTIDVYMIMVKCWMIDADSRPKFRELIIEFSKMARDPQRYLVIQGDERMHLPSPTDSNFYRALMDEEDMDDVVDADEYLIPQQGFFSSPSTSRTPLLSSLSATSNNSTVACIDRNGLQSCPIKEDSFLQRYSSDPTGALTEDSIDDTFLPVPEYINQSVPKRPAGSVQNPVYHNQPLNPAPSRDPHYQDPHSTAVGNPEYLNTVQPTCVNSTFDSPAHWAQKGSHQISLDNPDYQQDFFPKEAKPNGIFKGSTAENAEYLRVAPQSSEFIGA
Method in brief: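 72 h proliferation, Ba/F3 EGFR mutants (no IL3, puromycin-selected pools, EGFR confirmed by Western blot). Seeding of 400 L858R, 600 L858R/C797S and 800 exon 19del/FQEA cells per well. CellTiter-Glo used; controls were […] (high) and medium alone (low).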

[2] = target: T2, EGFR exon 20 ASV Ins V769_D770 (Ba/F3 cells) (Homo sapiens, UniProt P00533, INS769ASV); assay: Inhibitor activity on EGFR phosphorylation (pEGFR AlphaLISA, 2 h), Ba/F3 EGFR exon 20 ASV Ins; details: EGFR phosphorylation, AlphaLISA, 2 hours; read-out: ASV IC50 (pEGFR)
T2 construct: expressed in transfected cells; host or cells: Ba/F3 (murine pro-B cells), retroviral transduction, puromycin selection, IL3-independent pool
T2 sequence (P00533 with tags, fused parts or gaps INS769ASV): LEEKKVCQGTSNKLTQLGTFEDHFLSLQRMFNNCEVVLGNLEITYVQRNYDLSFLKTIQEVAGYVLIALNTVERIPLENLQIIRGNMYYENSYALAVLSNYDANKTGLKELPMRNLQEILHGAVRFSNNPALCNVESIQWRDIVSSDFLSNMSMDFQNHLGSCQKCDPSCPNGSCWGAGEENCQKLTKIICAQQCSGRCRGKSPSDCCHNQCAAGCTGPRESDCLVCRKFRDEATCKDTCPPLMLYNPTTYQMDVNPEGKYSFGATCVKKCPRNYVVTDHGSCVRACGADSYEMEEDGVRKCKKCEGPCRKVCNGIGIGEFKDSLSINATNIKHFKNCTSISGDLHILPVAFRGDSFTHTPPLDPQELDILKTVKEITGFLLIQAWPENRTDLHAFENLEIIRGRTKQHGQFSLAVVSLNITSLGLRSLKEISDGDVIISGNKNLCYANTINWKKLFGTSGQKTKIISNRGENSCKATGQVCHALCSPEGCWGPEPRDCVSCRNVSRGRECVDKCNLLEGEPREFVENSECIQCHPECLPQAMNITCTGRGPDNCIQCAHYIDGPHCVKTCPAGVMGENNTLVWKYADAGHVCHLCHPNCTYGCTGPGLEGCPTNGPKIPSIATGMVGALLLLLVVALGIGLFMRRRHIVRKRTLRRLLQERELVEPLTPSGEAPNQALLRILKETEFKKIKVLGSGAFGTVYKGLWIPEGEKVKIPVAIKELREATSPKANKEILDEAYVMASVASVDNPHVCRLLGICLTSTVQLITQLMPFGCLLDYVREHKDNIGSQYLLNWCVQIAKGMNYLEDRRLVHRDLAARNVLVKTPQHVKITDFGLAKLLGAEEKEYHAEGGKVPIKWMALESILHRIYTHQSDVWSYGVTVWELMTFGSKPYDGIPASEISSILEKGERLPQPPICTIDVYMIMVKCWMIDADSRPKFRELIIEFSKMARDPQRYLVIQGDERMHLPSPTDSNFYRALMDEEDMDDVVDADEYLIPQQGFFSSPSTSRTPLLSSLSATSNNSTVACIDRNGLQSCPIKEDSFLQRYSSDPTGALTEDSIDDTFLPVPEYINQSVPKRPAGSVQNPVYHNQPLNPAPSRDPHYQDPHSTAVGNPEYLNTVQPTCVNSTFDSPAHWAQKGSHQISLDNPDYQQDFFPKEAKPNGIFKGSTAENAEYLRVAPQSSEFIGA
Method in brief: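 IC50 values reflect inhibition of cellular EGFR phosphorylation, measured by AlphaLISA in lysates. Engineered Ba/F3 pools expressing mutant EGFR, selected with puromycin and cultured IL3-free, or CUTO14 cells, were exposed to compound for 2 hours.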

[3] = target: T3, EGFR exon 20 SVD Ins D770_N771 (Ba/F3 cells) (Homo sapiens, UniProt P00533, INS770SVD); assay: Inhibitor activity on EGFR-dependent cell growth (CellTiter-Glo, 72 h), Ba/F3 EGFR exon 20 SVD Ins; details: read-out: BaF3 SVD IC50
T3 construct: expressed in transfected cells; host or cells: Ba/F3 (murine pro-B cells), retroviral transduction, puromycin selection, IL3-independent pool
T3 sequence (P00533 with tags, fused parts or gaps INS770SVD): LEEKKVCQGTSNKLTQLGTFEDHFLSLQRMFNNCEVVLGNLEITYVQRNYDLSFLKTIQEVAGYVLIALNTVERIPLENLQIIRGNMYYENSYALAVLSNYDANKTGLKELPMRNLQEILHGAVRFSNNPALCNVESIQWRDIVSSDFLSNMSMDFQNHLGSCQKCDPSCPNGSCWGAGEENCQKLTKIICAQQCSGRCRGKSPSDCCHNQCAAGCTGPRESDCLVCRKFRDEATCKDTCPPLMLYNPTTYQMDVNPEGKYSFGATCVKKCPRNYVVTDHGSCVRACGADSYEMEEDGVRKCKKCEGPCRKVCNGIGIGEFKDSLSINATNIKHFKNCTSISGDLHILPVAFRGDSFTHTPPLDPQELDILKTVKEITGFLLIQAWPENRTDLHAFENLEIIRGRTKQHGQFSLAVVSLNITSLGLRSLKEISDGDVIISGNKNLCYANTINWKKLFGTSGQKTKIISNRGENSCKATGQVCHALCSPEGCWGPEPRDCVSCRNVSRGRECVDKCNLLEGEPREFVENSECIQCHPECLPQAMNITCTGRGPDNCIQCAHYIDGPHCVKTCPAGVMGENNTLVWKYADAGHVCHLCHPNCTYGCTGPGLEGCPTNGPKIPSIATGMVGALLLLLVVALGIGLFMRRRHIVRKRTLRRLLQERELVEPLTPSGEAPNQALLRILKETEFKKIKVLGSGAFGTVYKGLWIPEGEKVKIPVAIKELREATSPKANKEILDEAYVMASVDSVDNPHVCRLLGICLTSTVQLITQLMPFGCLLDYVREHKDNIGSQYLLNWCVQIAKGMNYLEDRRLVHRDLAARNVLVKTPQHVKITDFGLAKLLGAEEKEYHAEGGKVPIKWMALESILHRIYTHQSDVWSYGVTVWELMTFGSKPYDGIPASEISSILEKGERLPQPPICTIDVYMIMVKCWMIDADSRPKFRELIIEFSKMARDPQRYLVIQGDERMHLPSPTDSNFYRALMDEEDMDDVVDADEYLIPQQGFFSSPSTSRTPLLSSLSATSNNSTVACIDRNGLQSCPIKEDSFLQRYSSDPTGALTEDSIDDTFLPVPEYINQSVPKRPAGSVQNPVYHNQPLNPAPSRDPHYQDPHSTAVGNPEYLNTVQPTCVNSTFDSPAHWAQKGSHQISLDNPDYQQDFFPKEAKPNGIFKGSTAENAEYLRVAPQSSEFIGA
Method in brief: (§1)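 IC50s derive from a sigmoidal dose–response fit of CellTiter-Glo signal. The signal was normalised between […]-treated cells and cell-free medium. Ba/F3 mutant-EGFR cells, seeded at 400–800/well depending on the line, had 72 h of exposure to a 10-point, 3-fold compound series.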

EGFR WT (Ba/F3 cells) = target: T4, EGFR WT (Ba/F3 cells) (Homo sapiens, UniProt P00533); assay: Inhibitor activity on EGFR-dependent cell growth (CellTiter-Glo, 72 h), Ba/F3 EGFR WT; details: read-out: BaF3 WT IC50
T4 construct: expressed in transfected cells; host or cells: Ba/F3 (murine pro-B cells), retroviral transduction, puromycin selection, maintained with EGF
T4 sequence (P00533 25-1210): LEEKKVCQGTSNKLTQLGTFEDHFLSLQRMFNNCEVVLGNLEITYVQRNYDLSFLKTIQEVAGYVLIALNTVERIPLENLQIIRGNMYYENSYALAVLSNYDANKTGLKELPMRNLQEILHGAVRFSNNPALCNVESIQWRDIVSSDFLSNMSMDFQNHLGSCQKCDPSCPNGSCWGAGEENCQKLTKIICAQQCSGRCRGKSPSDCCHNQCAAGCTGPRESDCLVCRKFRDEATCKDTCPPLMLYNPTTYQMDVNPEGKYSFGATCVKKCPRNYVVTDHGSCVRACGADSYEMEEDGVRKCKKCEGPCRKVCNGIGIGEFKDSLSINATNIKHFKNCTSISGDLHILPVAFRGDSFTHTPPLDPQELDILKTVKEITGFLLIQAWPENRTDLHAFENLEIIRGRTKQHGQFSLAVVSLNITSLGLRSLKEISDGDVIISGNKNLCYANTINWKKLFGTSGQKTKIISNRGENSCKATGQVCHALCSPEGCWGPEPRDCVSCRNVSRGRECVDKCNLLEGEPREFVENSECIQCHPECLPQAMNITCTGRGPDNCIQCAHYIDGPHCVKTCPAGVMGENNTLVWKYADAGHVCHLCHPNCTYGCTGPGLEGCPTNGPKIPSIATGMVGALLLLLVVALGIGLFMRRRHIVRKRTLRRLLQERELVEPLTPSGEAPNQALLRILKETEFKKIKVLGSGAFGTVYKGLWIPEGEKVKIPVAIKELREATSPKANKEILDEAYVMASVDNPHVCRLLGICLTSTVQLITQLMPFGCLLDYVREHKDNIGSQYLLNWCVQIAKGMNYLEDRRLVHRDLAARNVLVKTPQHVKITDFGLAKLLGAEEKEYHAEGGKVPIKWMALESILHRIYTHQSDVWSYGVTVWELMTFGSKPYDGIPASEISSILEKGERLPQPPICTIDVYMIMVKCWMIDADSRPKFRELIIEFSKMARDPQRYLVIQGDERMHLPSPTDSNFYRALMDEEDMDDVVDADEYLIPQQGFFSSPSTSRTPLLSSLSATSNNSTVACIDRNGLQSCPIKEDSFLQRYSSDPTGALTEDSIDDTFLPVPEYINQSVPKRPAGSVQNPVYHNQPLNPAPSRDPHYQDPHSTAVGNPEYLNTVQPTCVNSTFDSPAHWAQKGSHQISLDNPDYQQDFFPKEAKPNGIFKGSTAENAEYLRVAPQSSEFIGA
Method in brief: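 This growth assay used Ba/F3 cells that depend on wild-type EGFR and are kept in EGF without IL3. Compounds were made up as 10 mM DMSO stocks and diluted 3-fold over 10 points. 120 nL went onto 600 cells/well. After 72 hours, 40 μL CellTiter-Glo was added and luminescence read on EnVision after 30 min.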

[4] = target: T2, EGFR exon 20 ASV Ins V769_D770 (Ba/F3 cells); assay: Inhibitor activity on EGFR-dependent cell growth (CellTiter-Glo, 72 h), Ba/F3 EGFR exon 20 ASV Ins; details: read-out: BaF3 ASV IC50
Method in brief: as §1

[5] = target: T5, EGFR exon 20 NPG Ins D770_N771 (Ba/F3 cells) (Homo sapiens, UniProt P00533, INS770NPG); assay: Inhibitor activity on EGFR-dependent cell growth (CellTiter-Glo, 72 h), Ba/F3 EGFR exon 20 NPG Ins; details: read-out: BaF3 NPG IC50
T5 construct: expressed in transfected cells; host or cells: Ba/F3 (murine pro-B cells), retroviral transduction, puromycin selection, IL3-independent pool
Method in brief: as §1

Row | SMILES | IC50 [1] | IC50 [2] | IC50 [3] | IC50 (EGFR WT (Ba/F3 cells)) | IC50 [4] | IC50 [5]
1 | COc1c(F)cccc1Nc1c(-c2ccnc3ccc(NC(C)(C)C)nc23)[nH]c2c1C(=O)NCC2 [Compound 694, 2-[6-(tert-butylamino)-1,5-naphthyridin-4-yl]-3-[(3-fluoro-2-methoxyphenyl)amino]-1H,5H,6H,7H-pyrrolo[3,2-c]pyridin-4-one] | < 0.1 µM | < 0.1 µM | < 0.1 µM | < 0.1 µM | < 0.1 µM | < 0.1 µM
2 | COc1c(Cl)cccc1Nc1c(-c2ccnc(NC3CC3)n2)[nH]c2c1C(=O)NCC2 [compound 112] | 0.1 to 1 µM | < 0.1 µM | 0.1 to 1 µM | > 1 µM | 0.1 to 1 µM | > 1 µM
3 | COc1c(F)cccc1Nc1c(-c2ccnc3ccc(OC4CC4)nc23)[nH]c2c1C(=O)NCC2 [Compound 696, 2-(6-cyclopropoxy-1,5-naphthyridin-4-yl)-3-[(3-fluoro-2-methoxyphenyl)amino]-1H,5H,6H,7H-pyrrolo[3,2-c]pyridin-4-one; trifluoroacetic acid] | < 0.1 µM | < 0.1 µM | < 0.1 µM | < 0.1 µM | < 0.1 µM | < 0.1 µM
4 | COc1c(Cl)cccc1Nc1c(-c2ccnc3c2OCCN3)[nH]c2c1C(=O)NCC2 [compound 292] | 0.1 to 1 µM | < 0.1 µM | 0.1 to 1 µM | > 1 µM | 0.1 to 1 µM | 0.1 to 1 µM
5 | COc1c(Cl)cccc1Nc1c(-c2ccnc3[nH]ccc23)[nH]c2c1C(=O)NCC2 [compound 218] | 0.1 to 1 µM | < 0.1 µM | 0.1 to 1 µM | > 1 µM | 0.1 to 1 µM | > 1 µM
6 | COc1c(F)cccc1Nc1c(-c2ccnc3ccc(N(C)C)nc23)[nH]c2c1C(=O)NCC2 [Compound 697, 2-[6-(dimethylamino)-1,5-naphthyridin-4-yl]-3-[(3-fluoro-2-methoxyphenyl)amino]-1H,5H,6H,7H-pyrrolo[3,2-c]pyridin-4-one] | < 0.1 µM | < 0.1 µM | < 0.1 µM | < 0.1 µM | < 0.1 µM | < 0.1 µM
7 | COc1c(Cl)cccc1Nc1c(-c2nc(N)ncc2F)[nH]c2c1C(=O)NCC2 [compound 295] | 0.1 to 1 µM | 0.1 to 1 µM | > 1 µM | > 1 µM | 0.1 to 1 µM | > 1 µM
